Holding throughout (format): cell-based
Assay [1] relates to Gram-negative bacteria. Briefly: MIC by broth microdilution, overall statement in words. Particulars: Example 1, statement in words. As to the method:
(§1) The antibacterial potency of the test article(s) was measured using the in vitro broth microdilution assay under assay conditions described by the Clinical and Laboratory Standards Institute. […] The test substance was dissolved in 100% DMSO, suspended completely by sonication or vortexing, diluted by 2-fold serial titrations in the same vehicle, for a total of 11 test concentrations. A 4 μL aliquot of each dilution was added to 196 μL of broth medium seeded with the organism suspension in wells of a 96 well plate (bacterial count: 2−8×10^5 colony forming units/mL final). The final volume was 200 μL in each well and the final DMSO concentration was 2 percent. Following incubation for 1 day at 36° C., the test plates were visually examined and wells were scored for growth or complete growth inhibition to define the minimum inhibitory concentration. Each test substance was evaluated in duplicate and the results were reported as the duplicate test values. Vehicle-control and an active reference agent were used as blank and positive controls, respectively. Microorganisms tested were Acinetobacter baumannii (ATCC 17978), Enterococcus faecalis (ATCC 29212), Enterococcus faecium VanA (ATCC 700221), Escherichia coli (ATCC 25922), Escherichia coli efflux defective DEL-tolC (JW5503), Heamophilus influenzae (ATCC 49247), Klebsiella pneumoniae (ATCC 43816), Pseudomonas aeruginosa (ATCC 27853), Pseudomonas aeruginosa MDR (NTUH-974), Staphylococcus aureus (ATCC 29213), Staphylococcus aureus MRSA (ATCC 33591) and Streptococcous pneumoniae (ATCC 46919). H. influenzae was grown in Haemophilus Test Medium and S. pneumoniae was grown in cation adjusted Muller-Hinton Broth II with 5% lysed horse blood. All other microorganisms were grown in cation adjusted Muller-Hinton Broth II.
(§2) The antibacterial potency of the test article(s) was measured using the in vitro broth microdilution assay under assay conditions described by the Clinical and Laboratory Standards Institute. […] The test substance was dissolved in 100% DMSO (unless stated below), suspended completely by sonication or vortexing, diluted by 2-fold serial titrations in the same vehicle, for a total of 11 test concentrations. A 4 μL aliquot of each dilution was added to 196 μL of broth medium seeded with the organism suspension in wells of a 96 well plate (bacterial count: 2−8×10^5 colony forming units/mL final). The final volume was 200 μL in each well and the final DMSO concentration was 2 percent. Following incubation, the test plates were visually examined and wells were scored for growth or complete growth inhibition to define the minimum inhibitory concentration. Each test substance was evaluated in duplicate and the results below are the duplicate test values. Vehicle-control and an active reference agent were used as blank and positive controls, respectively.
On the technique in general: Dilution methods test growth across graded concentrations, often in twofold steps.

Assay [2] relates to Haemophilus influenzae (ATCC 49247). As to the kind of experiment: MIC by broth microdilution. The conditions noted are these: Table 2, Example 2. As to the method: as §2
Assay [3] relates to Enterococcus faecalis (ATCC29212). As to the kind of experiment: MIC by broth microdilution. Particulars: Table 1, Example 1. As to the method: as §1
The test system of assay [4] is Staphylococcus aureus (ATCC 29213). Briefly: MIC by broth microdilution. The conditions noted are these: Table 1, Example 1. As to the method:
as §1

For assay [5], the system named is Streptococcus pneumoniae (ATCC 49619). Briefly: MIC by broth microdilution. The conditions noted are these: Table 1, Example 1. As to the method:
as §1

Assay [6] concerns Staphylococcus aureus, MRSA (ATCC 33591). As to the kind of experiment: MIC by broth microdilution. Particulars: Table 1, Example 1. As to the method: as §1
The subject of assay [7] is Enterococcus faecium, VanA (ATCC 700221). As to the kind of experiment: MIC by broth microdilution. The conditions noted are these: Table 1, Example 1. As to the method:
as §1

Assay [8] has as its system Acinetobacter baumannii (ATCC 17978). As to the kind of experiment: MIC by broth microdilution. As to the method: as §1, §2
Assay [9] has as its system Escherichia coli, efflux defective DEL-tolC (JW5503). As to the kind of experiment: MIC by broth microdilution. As to the method: as §1, §2
Assay [10] concerns Klebsiella pneumoniae (ATCC 43816). As to the kind of experiment: MIC by broth microdilution. As to the method:
as §1, §2

Assay [11] relates to Escherichia coli (ATCC 25922). As to the kind of experiment: MIC by broth microdilution. As to the method:
as §1, §2

The subject of assay [12] is Pseudomonas aeruginosa, MDR (NTUH-974). As to the kind of experiment: MIC by broth microdilution. As to the method: as §1, §2
Assay [13] relates to Pseudomonas aeruginosa (ATCC 27853). Briefly: MIC by broth microdilution. As to the method: as §1, §2

≈ marks a conversion by molar mass, not a printed value. Where only a bound is given, the exact number is not on record here.

Take `CN(C)Cc1ccc(/C=C/c2cc(/C=C/c3ccc(CN(C)C)cc3)cc(/C=C/c3ccc(CN(C)C)cc3)c2)cc1` [Compound 2]: the “activity against Gram-negative bacteria” value in assay [1] is recorded as “active”. In addition, the MIC was above 128 µg/mL in [2]; 4 µg/mL (≈ 7.2 µM) in assay [3]; 4 µg/mL (≈ 7.2 µM) in [4]; 32 µg/mL (≈ 57.6 µM) in [5]; 4 µg/mL (≈ 7.2 µM) in assay [6]; 2 µg/mL (≈ 3.6 µM) in [7]. Moreover, the MIC in assay [8] (Table 1, Example 1) was 16 µg/mL (≈ 28.8 µM); in assay [8] (Table 2, Example 2), 16 µg/mL (≈ 28.8 µM); in [9] (Table 1, Example 1) it was 4 µg/mL (≈ 7.2 µM); in [9] (Table 2, Example 2), 4 µg/mL (≈ 7.2 µM); in assay [10] (Table 1, Example 1) it was 16 µg/mL (≈ 28.8 µM); in [10] (Table 2, Example 2), 16 µg/mL (≈ 28.8 µM). Besides, the MIC in assay [11] (Table 1, Example 1) was found to be 8 µg/mL (≈ 14.4 µM); in [11] (Table 2, Example 2), 8 µg/mL (≈ 14.4 µM); in assay [12] (Table 1, Example 1) it was 32 µg/mL (≈ 57.6 µM); in [12] (Table 2, Example 2) it was 32 µg/mL (≈ 57.6 µM); in [13] (Table 1, Example 1), 64 µg/mL (≈ 115 µM); in [13] (Table 2, Example 2), 64 µg/mL (≈ 115 µM).

Values taken from patent US20190185417A1, “NOVEL ANTIBIOTICS” (priority 2016, published 2019).
